We go through 14 compounds from PubChem BioAssay (NCI).

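Growth conditions: 96-well plates. Treatment: test compound, 48 hours, 5 concentrations. Analysis: linear interpolation between bracketing concentrations; unreached endpoints set to highest concentration. The concentration for 50% growth inhibition is given as GI50. TGI: concentration producing complete growth inhibition.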

Among the test systems are NCI/ADR-RES ovarian; T-47D breast; DU-145 prostate; 786-0 renal; K-562 leukemia; BT-549 breast; A549 NSCLC; RPMI-8226 leukemia; HL-60(TB) leukemia; M19-MEL melanoma; SNB-78 CNS; KM20L2 colon.
Assay in all cases: DTP human tumour cell line panel, 48 h

In the case of `C=C(C)[C@@H]1CC[C@]2(C)CC[C@]3(C)[C@H](CC[C@@H]4[C@@]5(C)CC[C@H](OC(=O)c6ccccc6)C(C)(C)[C@@H]5CC[C@]43C)[C@@H]12`, the TGI with NCI/ADR-RES ovarian, in the assay with T-47D breast, with DU-145 prostate, in the assay with 786-0 renal, in the assay with K-562 leukemia and in the assay with BT-549 breast was more than 100 µM in each case. In addition, the TGI in the assay on A549 NSCLC, in the assay with RPMI-8226 leukemia and in the assay on HL-60(TB) leukemia was more than 100 µM throughout.

With `O=C(N/C(=C\c1ccccc1[N+](=O)[O-])c1nc2ccccc2[nH]1)c1ccccc1`, the total growth inhibition concentration (TGI) with M19-MEL melanoma, in the assay on SNB-78 CNS, with KM20L2 colon and in the assay on K-562 leukemia was more than 100 µM each time.

In the case of `CN(C)CCNc1ccc2ncnc3c2c1C(=O)c1ccccc1-3`, the TGI – broadly, the concentration at which net growth stops – in the assay on NCI/ADR-RES ovarian was found to be 5.28 µM; with T-47D breast, 24.7 µM; with 786-0 renal it was 5.47 µM; in the assay on K-562 leukemia, 6.75 µM; with BT-549 breast, 21 µM; with A549 NSCLC it was 1.73 µM. The TGI in the assay on RPMI-8226 leukemia is 3.83 µM; in the assay on HL-60(TB) leukemia, more than 23.6 µM.

`COc1ccc(-c2cc(-c3ccccc3)n(C3OCC(OC(C)=O)C(OC(C)=O)C3OC(C)=O)c(=S)c2C#N)cc1` (stereo not given): the concentration for total growth inhibition (TGI) in the assay on NCI/ADR-RES ovarian, with T-47D breast, in the assay with DU-145 prostate, in the assay on K-562 leukemia, in the assay on BT-549 breast and with A549 NSCLC was more than 100 µM in each case. Besides, the total growth inhibition concentration (TGI) with RPMI-8226 leukemia and with HL-60(TB) leukemia was more than 100 µM throughout.

As for `CC(C)(N)CO[C@H]1C[C@H]2CC[C@@]1(C)C2(C)C`, the total growth inhibition concentration (TGI) in the assay with NCI/ADR-RES ovarian is more than 100 µM; with T-47D breast, 35.9 µM; in the assay on DU-145 prostate, 73.8 µM; in the assay with 786-0 renal, 30.2 µM; in the assay with K-562 leukemia it was 43.3 µM; with BT-549 breast, 60.5 µM. In addition, the TGI in the assay with A549 NSCLC is more than 100 µM; in the assay with RPMI-8226 leukemia, 40.7 µM.

For `O=C(CCCn1c(=O)c2sc3ccccc3c2n2nnc(-c3ccccc3)c12)NCCc1cnc[nH]1`, the GI50 (in general, the concentration giving 50% growth inhibition) with NCI/ADR-RES ovarian is 3.22 µM; in the assay on T-47D breast, 1.4 µM; in the assay on DU-145 prostate, 1.55 µM; in the assay on BT-549 breast, 17.3 µM; in the assay on HL-60(TB) leukemia it was 1.41 µM. The TGI in the assay on NCI/ADR-RES ovarian is more than 100 µM; with T-47D breast it was 4.49 µM; with DU-145 prostate, 2.98 µM; in the assay on BT-549 breast, 41.5 µM; with HL-60(TB) leukemia it was 6.36 µM.

Consider `Cc1nc2ccccc2c(=O)n1-c1n[nH]c2ccccc12`, for which the concentration for total growth inhibition (TGI) in the assay with NCI/ADR-RES ovarian, in the assay with T-47D breast, in the assay on DU-145 prostate, in the assay with 786-0 renal, with K-562 leukemia and in the assay on BT-549 breast was more than 100 µM each time. The TGI in the assay on A549 NSCLC and with RPMI-8226 leukemia was more than 100 µM in each case.

In the case of `Cc1nc(Cl)c(Cl)c(Cl)n1`, the total growth inhibition concentration (TGI) in the assay on NCI/ADR-RES ovarian was 15.3 µM; in the assay with T-47D breast, 7.71 µM; with DU-145 prostate it was 9.24 µM; in the assay on 786-0 renal, 1.47 µM; in the assay with K-562 leukemia, 0.0358 µM; in the assay with BT-549 breast it was 0.482 µM. Also, the TGI is 3.25 µM with A549 NSCLC, 0.203 µM in the assay on RPMI-8226 leukemia and 0.0553 µM with HL-60(TB) leukemia.

For the compound `CN1CCN(c2ccc(-c3ccc4ncc(C#N)c(Nc5ccc(F)c(Cl)c5)c4c3)cc2)CC1`, the GI50 is 4.57 µM in the assay on NCI/ADR-RES ovarian; 1.93 µM in the assay on T-47D breast; 0.872 µM in the assay with DU-145 prostate; 3.77 µM in the assay on BT-549 breast; 2.63 µM in the assay on A549 NSCLC; 1.92 µM with RPMI-8226 leukemia. Besides, the GI50 in the assay with HL-60(TB) leukemia was 1.68 µM. In addition, the TGI turned out to be 27.9 µM in the assay with NCI/ADR-RES ovarian; 7.15 µM with T-47D breast; 4.11 µM with DU-145 prostate; 17.9 µM with BT-549 breast; 26.6 µM in the assay on A549 NSCLC; 5.5 µM in the assay with RPMI-8226 leukemia. The total growth inhibition concentration (TGI) with HL-60(TB) leukemia came out at 4.45 µM.

`CCn1nc(C)c2c1C(=O)NC(C)C(=O)N2` (stereo not given): the TGI in the assay with DU-145 prostate, in the assay on BT-549 breast and in the assay on A549 NSCLC was more than 100 µM each time.

As for `COc1cc(-c2n/c(=C\c3c(O)[nH]c4ccc(Cl)cc34)cc3c2=Nc2ccccc2-3)cc(OC)c1OC`, the GI50 in the assay on NCI/ADR-RES ovarian is 2.01 µM; in the assay with T-47D breast it was 1.28 µM; in the assay with DU-145 prostate it was 0.655 µM; with K-562 leukemia it was 0.728 µM; with BT-549 breast, 2.43 µM; in the assay on RPMI-8226 leukemia it was 2.68 µM. Moreover, the GI50 in the assay with HL-60(TB) leukemia is 10.7 µM. In addition, the TGI with NCI/ADR-RES ovarian was 7.55 µM; in the assay on T-47D breast it was 3.21 µM; in the assay with DU-145 prostate, 2.59 µM; in the assay on K-562 leukemia it was 10.1 µM; in the assay with BT-549 breast, 7.45 µM; in the assay with RPMI-8226 leukemia, 19.7 µM. The TGI with HL-60(TB) leukemia is 38.1 µM.

As to `Nc1ccc2c(c1)C1=NNC(=O)CC1C2` (stereo not given), the TGI in the assay with M19-MEL melanoma, in the assay on NCI/ADR-RES ovarian, in the assay on SNB-78 CNS, in the assay on KM20L2 colon, with K-562 leukemia and in the assay with A549 NSCLC was more than 100 µM each time. The TGI with RPMI-8226 leukemia and with HL-60(TB) leukemia was more than 100 µM throughout.

For `CO[C@H]1[C@@H](O)[C@@H](C)O[C@@H](O[C@H]2CC[C@@]3(C)[C@H](CC[C@@H]4[C@@H]3CC[C@]3(C)[C@@H](C5=CC(=O)OC5)CC[C@]43O)C2)[C@@H]1O`, the TGI came to 0.0276 µM with NCI/ADR-RES ovarian; 0.222 µM in the assay with T-47D breast; 0.00729 µM with DU-145 prostate; 0.01 µM with 786-0 renal; 0.371 µM with K-562 leukemia; 0.0236 µM with BT-549 breast. Also, the TGI with A549 NSCLC turned out to be 0.00487 µM; in the assay with RPMI-8226 leukemia, 25 µM; in the assay with HL-60(TB) leukemia, 0.0119 µM. The GI50 is 0.00633 µM in the assay on K-562 leukemia and 0.00781 µM with RPMI-8226 leukemia.

With `CC1SC(c2ccccc2)N(Nc2c3ccccc3nc3ccccc23)C1=O` (stereo not given), the concentration for total growth inhibition (TGI) with M19-MEL melanoma, in the assay on SNB-78 CNS, in the assay with KM20L2 colon, in the assay with K-562 leukemia, with A549 NSCLC and in the assay on RPMI-8226 leukemia was more than 100 µM throughout.
